Measured values from US10174052B2, “Quinuclidine compounds as α-7 nicotinic acetylcholine receptor ligands” (BRISTOL-MYERS SQUIBB COMPANY, priority 2014, dated 2019).

Biological target: T1, α7 nicotinic ACh receptor ion channel expressed in mammalian HEK 293 cells (Rattus norvegicus, UniProt Q05941)
T1 construct: expressed in transfected cells
Assay: Ca2+-sensitive fluorescence-based assay for α7 nicotinic acetylcholine receptor channel function (FLIPR), agonist activity
Assay type: cell-based
Settings: HEK 293 cells, Ca2+ flux
Procedure: II) A Ca^2+-Sensitive, Fluorescence-Based Assay α-7 for Nicotinic Acetylcholine Receptor Channel Function in Mammalian Cells (“FLIPR”).
Lead compounds are evaluated for agonist activity at the α7 nicotinic ACh receptor ion channel expressed in mammalian HEK 293 cells. Agonist potency and efficacy values are determined from kinetic fluorescence Ca^2+ influx measurements made using a 384 well FLIPR (Fluorescence Image Plate Reader). The utility of fluorescent indicators for measuring changes in intracellular divalent cation concentrations, particularly Ca^2+, for drug discovery endeavors is well documented (Rudiger, R., et al., Nature Reviews, 2003, 4:579-586; Gonzalez J. E., et al., Receptors and Channels, 2002, 8:283-295). In this assay, channel expressing HEK cell lines seeded in 384 well assay plates are loaded with a membrane permeant fluorescent Ca^2+ indicator dye, whose 510 nm green emission signal increases in response to elevation of intracellular Ca^2+ concentration. The basal fluorescence from the cells is monitored in real time, followed by the acute addition of test compounds. If the compound is an agonist at any of the non-selective cation channels, the latter open and allow the movement of extracellular Ca^2+ ions into the cell cytoplasm, where they bind to the Ca^2+ indicator dye, and produce an increase in fluorescence output signal, which is detected by a cooled CCD imaging camera.
Reagents: The acetomethoxy (AM) ester of the Ca^2+ indicator dye Fluo-4 was obtained from InVitrogen, (Carlsbad, Calif.). Acetylcholine and all buffer constituents were purchased from Sigma Chemical Company, St. Louis, Mo. G418 and Minimal Essential Medium were purchased from InVitrogen Life Technologies, Carlsbad, Calif. Fetal bovine serum was purchased from (InVitrogen, Carlsbad, Calif.).
HEK-293 cells were grown in Minimal Essential Medium containing 10% (v/v) fetal bovine serum at 37° C. in a 5% CO2 incubator. HEK-293 cells stably expressing the ion channels were grown in the same medium with the addition of 500 μg/ml G418.
HEK-293 cells expressing the ion channels of interest were plated in 384 well, black-walled, clear-bottomed, poly-D-lysine coated plates at a density of ˜20,000 cells/well in 20 μl of Minimal Essential Medium containing 10% (v/v) fetal bovine serum and incubated for 2 days at 29° C. in a 5% CO2 incubator. Prior to assay, cells were loaded with the Fluo-4 AM ester. Cell loading was accomplished by removing the culture medium and replacing it with 30 μl/well of the AM ester of the dye (5 μM) mixed with Hanks Balanced Salt Solution (#14175-095) containing 20 mM HEPES, 2.5 mM probenecid, 0.5 mM CaCl2, 1 mM MgCl2 and 10 μM atropine. Dye loading was allowed to proceed for 90 minutes at room temperature at which time the dye loading solution was removed and replaced with 40 μl/well of Hanks buffer. Cells loaded with dye were loaded onto a FLIPR384 (Molecular Devices, Sunnyvale, Calif.). Fluo-4 dye was excited using the 488 nm line of an argon laser. Emission was filtered using a 540+/−30 nm bandpass filter. For evaluation of the effects of test compounds using the Ca^2+ flux assay, compounds to be tested were provided in assay ready plates. For nicotinic receptor ion channel expressing cells, the assay was initiated by the addition of 20 μl/well of Hanks buffer containing test compounds. For all assays, data were collected at 1 Hz for 10 seconds (baseline), at which time the compound containing stimulus buffers are added, and further measurements collected at 0.33 Hz for 3 min.
The statistical robustness of the nicotinic receptor Ca^2+ flux assays is determined from blanks and totals wells. The totals wells define maximal channel activation for each compound test plate (Maximum efficacious dose of acetylcholine), and the blanks wells which contain matched DMSO only, define zero channel activation. […]

[1] = FLIPR α7 (EC50, nM), agonist potency
[2] = FLIPR α7 activity rating (EC50, nM), class rating of EC50

T1 sequence (Q05941 23-502): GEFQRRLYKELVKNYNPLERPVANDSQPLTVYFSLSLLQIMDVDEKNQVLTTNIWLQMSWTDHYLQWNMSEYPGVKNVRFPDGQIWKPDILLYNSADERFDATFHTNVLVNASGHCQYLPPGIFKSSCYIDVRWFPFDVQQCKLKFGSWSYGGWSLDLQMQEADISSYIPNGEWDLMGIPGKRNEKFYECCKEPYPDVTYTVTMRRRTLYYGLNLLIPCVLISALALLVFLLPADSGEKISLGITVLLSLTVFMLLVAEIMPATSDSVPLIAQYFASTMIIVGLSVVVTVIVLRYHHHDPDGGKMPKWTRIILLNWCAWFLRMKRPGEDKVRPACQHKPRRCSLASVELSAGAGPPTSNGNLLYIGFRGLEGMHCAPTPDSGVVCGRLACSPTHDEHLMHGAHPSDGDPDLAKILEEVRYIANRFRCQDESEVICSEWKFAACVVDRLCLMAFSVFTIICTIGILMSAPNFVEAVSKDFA

Structure (SMILES)	EC50 [1] [nM]	EC50 [2] [nM]
c1ccc(-c2cn3c(n2)O[C@]2(CN4CCC2CC4)C3)cc1 [Example 21b, (R)-6-Phenyl-3H-1′-azaspiro[imidazo[2,1-b]oxazole-2,3′-bicyclo[2.2.2]octane]]	53	< 100
FC(F)(F)c1cccc2c1nc1n2C[C@]2(CN3CCC2CC3)O1 (single isomer, unassigned) [Example 11a]	32500	1000 to 100000
